Test results from US20230190761A1, “METHYLENE BLUE STABILIZED MRNA COMPOSITIONS” (ModernaTX, Inc., priority 2020, published 2023).
“And” between values parts separate entries of the source, which are not always exact repeats. Equal values may be shown once. “Also recorded” adds a separate entry of the source.

Assays:
[1] = system: mRNA encapsulated within LNPs; test: mRNA-LNP stability with thionine or methylene blue, main peak purity by fragmentation analysis; assay type: physicochemical; conditions: mRNA-LNP with incremental dye 0.01-1.5 mM, 3 weeks at room temperature and 40° C., relative to no dye
Description: (§1) mRNA purity can be determined by reverse phase high-performance liquid chromatography (RP-HPLC) size based separation. This method can be used to assess mRNA integrity by a length-based gradient RP separation and UV detection of RNA at 260 nm. As used herein “main peak” or “main peak purity” refers to the RP-HPLC signal detected from mRNA that corresponds to the full size mRNA molecule loaded within a given LNP formulation. mRNA purity can also be assessed by fragmentation analysis. Fragmentation analysis (FA) is a method by which nucleic acid (e.g., mRNA) fragments can be analyzed by capillary electrophoresis. Fragmentation analysis involves sizing and quantifying nucleic acids (e.g., mRNA), for example by using an intercalating dye coupled with an LED light source. Such analysis may be completed, for example, with a Fragment Analyzer from Advanced Analytical Technologies, Inc.
A study was performed to compare the effects of thionine, a phenothiazinium dye that permeates LNPs, with methylene blue which permeates LNPs to a lesser extent. A series of mRNA-LNP samples were prepared containing incremental levels of each dye as detailed in Table 1. These samples were incubated under two temperature conditions of room temperature and 40 C for 3 weeks prior to analysis.

[2] = system: mRNA within LNP compositions; test: mRNA integrity by fragmentation analysis after 10 days at 5, 25 or 40° C. with methylene blue; assay type: physicochemical; conditions: for mRNA stability by fragmentation analysis: 0.1-6 mM methylene blue
Description: as §1
In view of the surprising and somewhat counter-intuitive finding that methylene blue enhanced stability of mRNA-LNP formulations, additional experimentation was conducted. The stability of mRNA-LNPs in the presence of increasing levels of methylene blue was investigated upon incubation at 5° C., 25° C. or 40° C. for 10 days. […] In addition to chemical stability, a careful examination of the possible impact of methylene blue on the physical state of the LNP was performed using dynamic light scattering (DLS). This technique is exquisitely sensitive to tiny changes in hydrodynamic nanoparticle size, especially with respect to the formation of larger aggregates known to be a common physical degradation mode of many LNPs.

[3] = LC/MS analysis of PEG-lipid stability in presence of methylene blue; assay type: physicochemical
Method: This example describes the effects of methylene blue on lipid components of LNP formulations. PEG-lipid is known to be susceptible to oxidative degradation. Given the degradation mechanism attributed to methylene blue, an accelerated study was performed to evaluate whether the presence of methylene blue adversely affects PEG-lipid stability. Lyso-PEG-DMG is considered a primary bellwether of PEG-lipid degradation. As such, its concentration in samples was measured using liquid chromatography/mass spectrometry (LC/MS) after storage of LNPs at room temperature (FIG. 7A) or 5° C. (FIG. 7B) in the presence of a range of methylene blue concentrations.

mRNA in LNP formulations = test: mRNA-LNP purity by RP-HPLC and fragment analysis, 40° C. 12 days, light vs dark; assay type: physicochemical
Method: As detailed in this example, samples are labeled as follows: A=0 mM methylene blue; B=0.5 mM methylene blue; C=1 mM methylene blue; D=1.5 mM methylene blue; and E=2.0 mM methylene blue.
After incubating samples at 40° C. for 12 days, either protected from light or unprotected, fragmentation analysis was conducted to evaluate the presence of lipid-RNA adducts.

lyophilized mRNA-LNP = test: Stability of lyophilized mRNA-LNP with methylene blue (RP-HPLC); assay type: physicochemical; conditions: lyophilized mRNA-LNP powder with 1 mM methylene blue, 1 week at 40° C.
Method: To evaluate whether methylene blue could have a stabilization effect on lyophilized powder formulations of mRNA-LNP, studies were performed to compare the effect of 1 mM methylene blue on loss of purity of a lyophilized mRNA-LNP. In this experiment methylene blue was added to LNP immediately prior to lyophilization. The resulting powders (shown in FIG. 15) were stored at −80° C., 5° C. or 40° C. with or without methylene blue.

mRNA-LNP = test: DOE study of solution composition with and without methylene blue, main peak purity by RP-HPLC; assay type: physicochemical; conditions: 2 mM methylene blue, 40° C. ~1 week
Description: To broadly evaluate the effect of methylene blue under a large number of systematically varied solution conditions, a design of experiment (DOE) approach was utilized.

[4] = system: mRNA within LNP formulations; test: Screen of molecular dyes on mRNA stability within LNP formulations (RP-HPLC); assay type: physicochemical
Method: This example discusses the effects of various dye molecules on mRNA stability within LNP formulations. To evaluate the potential stabilization effects of dyes, LNP compositions were prepared containing 2 mM of one of 25 dyes. After incubation for 4 days at 40° C., main peak mRNA purity was measured by RP-HPLC. Variance within this study was estimated from three independent sample replicates with no dye (Sample IDs D0a, D0b and D0c as shown in Table 4) or with 2 mM methylene blue (Sample IDs D1a, D1b and D1c as shown in Table 4). […] The main peak purity measured in each mRNA-LNP formulation, as well as its difference relative to the no dye controls is shown in Table 4. Positive differences relative to no dye represent improvements in mRNA stability, and negative differences represent worsened mRNA stability.

mRNA [5] = test: Circular dichroism of mRNA with methylene blue; assay type: physicochemical; conditions: addition of methylene blue (210 μM, 367 μM)
Description: The effect of methylene blue on the conformational state of mRNA is also apparent from the circular dichroism (CD) spectra shown in FIG. 20. The CD bands correspond to the intrinsic CD of the mRNA itself. […] The stabilizing effect of methylene blue observed on mRNA may be attributed to this binding and conformational stabilization evident from the DSC thermograms (FIGS. 18 and 19).

mRNA [6] = test: ITC of dye-mRNA interaction; assay type: binding
mRNA [7] = test: DLS of methylene blue-mRNA interaction; assay type: physicochemical; conditions: methylene blue concentrations in the 10 μM range; data not shown
Description: The images in FIG. 22 show the effect of thionine on mRNA-LNPs. […] The significant protection against fragmentation and adduct formation conferred by the compounds disclosed herein may be based on this effect on nucleic acid conformational state.

For `CN(C)c1ccc2nc3ccc(N(C)C)cc3[s+]c2c1` [methylene blue], the “% main peak purity by fragmentation analysis (mRNA stability)” value [1] was “stabilized it; also recorded: significantly improved mRNA stability relative to the no-dye control”, the “mRNA stability by fragmentation analysis” value ([2]; 5° C.) was “slight trend in the opposite direction” and the “methylene blue concentration range at which stabilizing effect reached a maximum” value ([2]; 40° C., fragmentation analysis) was 1.5 to 3.0 mM. For the same compound, the “mRNA stability by fragmentation analysis” value ([2]; room temperature) was “protective effect”, the “total quantity of PEG-lipid (LC/MS)” value ([3]; 0, 0.1, 0.5 and 1 mM methylene blue, 1 week at room temperature or 5° C.) was “no effect on the total quantity of PEG-lipid present” and the “Lyso-PEG-DMG signal (LC/MS)” value ([3]; 0 to 1.0 mM methylene blue, LNPs at room temperature or 5° C., 1 week) was “no difference in Lyso-PEG-DMG signal was detected”. For the same compound, the “mRNA stability by RP-HPLC and fragmentation analysis” value (mRNA in LNP formulations; 12 days, protected from light, 0.5-2.0 mM methylene blue, vs −80 C controls) was “enhanced the stability of mRNA in LNP formulations”, the “mRNA degradation by RP-HPLC and fragmentation analysis” value (mRNA in LNP formulations; 12 days, unprotected from light, samples B-E (0.5-2.0 mM methylene blue)) was “more mRNA degradation than samples stored protected from light or those without methylene blue” and the adduct formation (mRNA in LNP formulations; protected from light) was “did not have a detrimental effect on adduct formation”. The main peak purity (lyophilized mRNA-LNP) was 30% and 33%, the “average purity of the 14 samples” value (mRNA-LNP; 14 buffer/pH/NaCl conditions) was 60±6% and the “main peak mRNA purity (range over samples 15-28)” value (mRNA-LNP; Tris or phosphate buffer pH 7.0-8.5, 0 or 150 mM NaCl, RP-HPLC) was 50-70%. For the same compound, the “Main Peak Purity after 4 days at 40° C. (%)” value ([4]; 2 mM dye in mRNA-LNP, RP-HPLC, no value (—) = physically unstable, no reliable chromatographic result, interpreted as destabilizing) was 89.62% and 90.27% and 85.96%, the “Mean (Main Peak Purity after 4 days at 40° C.)” value ([4]; 2 mM dye, three independent sample replicates) was 89 ± 2% and the “Difference relative to No Dye” value ([4]; main peak purity, 2 mM dye, 4 days at 40° C., ±4% interpreted as significant) was 14%. The “intrinsic CD bands of mRNA” value (mRNA [5]) was “significant perturbation in these bands”, the “dissociation constant for the dye-mRNA interaction (ITC)” value (mRNA [6]) was “μm dissociation constant” and the “mRNA hydrodynamic radii (DLS)” value (mRNA [7]) was “measurable decrease in mRNA hydrodynamic radii”.
